Values joined by “and” are separate entries in the source; they are usually repeats but may differ in a detail not shown here. Identical values can stand only once.
Tests used:
[1] = excess molar enthalpy (molar enthalpy of mixing); xn = mol fraction of the nth substance listed; conditions: 298.15 K, 101 kPa, Liquid, Flow calorimetry
[2] = heat capacity at constant pressure per volume; xn = mol fraction of the nth substance listed; conditions: 298.15 K, 101 kPa, Liquid, Flow calorimetry
[3] = xn = mol fraction of the nth substance listed; conditions: 298.15 K, 101 kPa, Liquid

C1CCCC1 [cyclopentane] + CCCCO
[1]
Conditions | excess molar enthalpy
x1 = 0.098 | 0.022 kcal/mol
x1 = 0.196 | 0.0427 kcal/mol
x1 = 0.294 | 0.0637 kcal/mol
x1 = 0.393 | 0.0857 kcal/mol and 0.0846 kcal/mol
x1 = 0.493 | 0.104 kcal/mol
x1 = 0.593 | 0.118 kcal/mol
x1 = 0.694 | 0.124 kcal/mol
x1 = 0.796 | 0.116 kcal/mol
x1 = 0.897 | 0.0941 kcal/mol
x1 = 0.949 | 0.0739 kcal/mol

CCCCCCCCCCO [decan-1-ol] + C1CCOC1
Conditions | heat capacity, [2] [J/K/m3] | mass density, [3] [kg/m3]
x2 = 0.0904 | 1904000 | 828.17
x2 = 0.2067 | 1869000 | 831.12
x2 = 0.3967 | 1810000 | 837.35
x2 = 0.5985 | 1734000 | 846.59
x2 = 0.7992 | 1635000 | 860.14
x2 = 0.8981 | 1573000 | 869.46

CCCCCCCO [heptan-1-ol] + C1CCOC1
Conditions | heat capacity, [2] [J/K/m3] | mass density, [3] [kg/m3]
x2 = 0.1103 | 1888000 | 822.54
x2 = 0.2085 | 1859000 | 826.55
x2 = 0.3123 | 1827000 | 831.18
x2 = 0.4046 | 1797000 | 835.76
x2 = 0.496 | 1765000 | 840.88
x2 = 0.5973 | 1725000 | 847.05
x2 = 0.6977 | 1680000 | 854.06
x2 = 0.8031 | 1627000 | 862.49
x2 = 0.9021 | 1572000 | 871.51

CCCCCCO [hexan-1-ol] + C1CCOC1
Conditions | heat capacity, [2] [J/K/m3] | mass density, [3] [kg/m3]
x2 = 0.1191 | 1886000 | 820.48
x2 = 0.1994 | 1862000 | 824.38
x2 = 0.3032 | 1829000 | 829.77
x2 = 0.3931 | 1800000 | 834.74
x2 = 0.505 | 1759000 | 841.56
x2 = 0.6028 | 1719000 | 848.03
x2 = 0.6944 | 1678000 | 854.68
x2 = 0.7937 | 1628000 | 862.57
x2 = 0.8961 | 1574000 | 871.63

CCCCCCCCCO [nonan-1-ol] + C1CCOC1
[3]
Conditions | mass density [kg/m3]
x2 = 0.1048 | 827.19
x2 = 0.1889 | 829.58
x2 = 0.3131 | 833.79
x2 = 0.4067 | 837.47
x2 = 0.504 | 841.9
x2 = 0.6004 | 847.05
x2 = 0.7009 | 853.33
x2 = 0.7999 | 860.89
x2 = 0.9015 | 870.34
